Holding throughout (assay): Peptidase activity detection on Columbia agar containing substrate
Holding throughout (format): cell-based

For assay [1], the system named is Pseudomonas aeruginosa NCTC 10662. Details: key to fluorescence intensity: − = no fluorescence detected; e = trace of fluorescence; +/− = weak fluorescence; + = medium fluorescence; ++ = strong fluorescence; NG = No Growth. To be noted: for fluorescence intensity: Pseudomonas aeruginosa NCTC 10662, substrate 100 mg/l, 24 hours at 37° C., UV 360-365 nm; for fluorescence produced: Pseudomonas aeruginosa strain. As to the method:
(§1) 40 mg of each substrate are dissolved in 4 ml of dimethylformamide (DMF). This solution is completely taken up in 400 ml of Columbia agar autoclaved beforehand and kept molten at 50° C. The final concentration for each substrate is therefore 100 mg/l. Each of the media is distributed into 90 mm Petri dishes in a proportion of 20 ml per dish.
(§2) 18 microorganism strains derived from collections and belonging to various species of bacteria and of yeasts are inoculated onto these media by semi-quantitative isolation of 10 μl of a suspension at 0.5 McFarland diluted to 1/20. The media are incubated for 24 hours at 37° C., and then the colonies formed are examined visually under UV illumination at 360-365 nm.

The subject of assay [2] is Burkholderia cepacia 1222. Details: key to fluorescence intensity: − = no fluorescence detected; e = trace of fluorescence; +/− = weak fluorescence; + = medium fluorescence; ++ = strong fluorescence; NG = No Growth. The note with it: for fluorescence produced: B. cepacia strain; for fluorescence intensity: Burkholderia cepacia 1222, substrate 100 mg/l, 24 hours at 37° C., UV 360-365 nm. How it is done:
as §1, §2

The test system of assay [3] is Staphylococcus aureus NCTC 6571. Further details: key: − = no fluorescence detected; e = trace of fluorescence; +/− = weak fluorescence; + = medium fluorescence; ++ = strong fluorescence; NG = No Growth. To be noted: substrate 100 mg/l, 24 hours at 37° C., UV 360-365 nm. How it is done:
as §1, §2

Assay [4] concerns Escherichia coli NCTC 10418. Details: key: − = no fluorescence detected; e = trace of fluorescence; +/− = weak fluorescence; + = medium fluorescence; ++ = strong fluorescence; NG = No Growth. To be noted: substrate 100 mg/l, 24 hours at 37° C., UV 360-365 nm. As to the method:
as §1, §2

Assay [5] has as its system Enterococcus faecium NCTC 11047. Details: key: − = no fluorescence detected; e = trace of fluorescence; +/− = weak fluorescence; + = medium fluorescence; ++ = strong fluorescence; NG = No Growth. The note with it: Enterococcus faecium NCTC 11047 (Table 2); substrate 100 mg/l, 24 hours at 37° C., UV 360-365 nm. How it is done: as §1, §2
Assay [6] deals with Listeria monocytogenes NCTC 11994. Further details: key: − = no fluorescence detected; e = trace of fluorescence; +/− = weak fluorescence; + = medium fluorescence; ++ = strong fluorescence; NG = No Growth. To be noted: substrate 100 mg/l, 24 hours at 37° C., UV 360-365 nm. As to the method: as §1, §2
Assay [7] deals with Enterobacter cloacae NCTC 11936. Details: key: − = no fluorescence detected; e = trace of fluorescence; +/− = weak fluorescence; + = medium fluorescence; ++ = strong fluorescence; NG = No Growth. The note with it: substrate 100 mg/l, 24 hours at 37° C., UV 360-365 nm. As to the method: as §1, §2
In assay [8] the test system is Candida albicans ATCC 90028. Details: key: − = no fluorescence detected; e = trace of fluorescence; +/− = weak fluorescence; + = medium fluorescence; ++ = strong fluorescence; NG = No Growth. The note with it: substrate 100 mg/l, 24 hours at 37° C., UV 360-365 nm. How it is done: as §1, §2
In assay [9] the test system is Providencia rettgeri NCTC 7475. Further details: key: − = no fluorescence detected; e = trace of fluorescence; +/− = weak fluorescence; + = medium fluorescence; ++ = strong fluorescence; NG = No Growth. To be noted: substrate 100 mg/l, 24 hours at 37° C., UV 360-365 nm. As to the method: as §1, §2
Assay [10] has as its system Yersinia enterocolitica NCTC 11176. Further details: key: − = no fluorescence detected; e = trace of fluorescence; +/− = weak fluorescence; + = medium fluorescence; ++ = strong fluorescence; NG = No Growth. To be noted: substrate 100 mg/l, 24 hours at 37° C., UV 360-365 nm. How it is done: as §1, §2
Assay [11] relates to Serratia marcescens NCTC 10211. Details: key: − = no fluorescence detected; e = trace of fluorescence; +/− = weak fluorescence; + = medium fluorescence; ++ = strong fluorescence; NG = No Growth. The note with it: substrate 100 mg/l, 24 hours at 37° C., UV 360-365 nm. As to the method:
as §1, §2

Assay [12] relates to Salmonella Typhimurium NCTC 74. Further details: key: − = no fluorescence detected; e = trace of fluorescence; +/− = weak fluorescence; + = medium fluorescence; ++ = strong fluorescence; NG = No Growth. The note with it: substrate 100 mg/l, 24 hours at 37° C., UV 360-365 nm. How it is done: as §1, §2
Assay [13] has as its system Streptococcus pyogenes NCTC 8306. Further details: key: − = no fluorescence detected; e = trace of fluorescence; +/− = weak fluorescence; + = medium fluorescence; ++ = strong fluorescence; NG = No Growth. To be noted: substrate 100 mg/l, 24 hours at 37° C., UV 360-365 nm. How it is done: as §1, §2
For assay [14], the system named is Candida glabrata NCPF3943. Further details: key: − = no fluorescence detected; e = trace of fluorescence; +/− = weak fluorescence; + = medium fluorescence; ++ = strong fluorescence; NG = No Growth. To be noted: substrate 100 mg/l, 24 hours at 37° C., UV 360-365 nm. As to the method: as §1, §2
Assay [15] has as its system Bacillus subtilis NCTC 9372. Further details: key: − = no fluorescence detected; e = trace of fluorescence; +/− = weak fluorescence; + = medium fluorescence; ++ = strong fluorescence; NG = No Growth. The note with it: substrate 100 mg/l, 24 hours at 37° C., UV 360-365 nm. As to the method:
as §1, §2

For assay [16], the system named is Staphylococcus aureus NCTC 11939. Details: key: − = no fluorescence detected; e = trace of fluorescence; +/− = weak fluorescence; + = medium fluorescence; ++ = strong fluorescence; NG = No Growth. To be noted: Staphylococcus aureus (MRSA) NCTC 11939; substrate 100 mg/l, 24 hours at 37° C., UV 360-365 nm. How it is done:
as §1, §2

Assay [17] relates to Staphylococcus epidermidis NCTC 11047. Further details: key: − = no fluorescence detected; e = trace of fluorescence; +/− = weak fluorescence; + = medium fluorescence; ++ = strong fluorescence; NG = No Growth. The note with it: substrate 100 mg/l, 24 hours at 37° C., UV 360-365 nm. As to the method:
as §1, §2

Assay [18] relates to Enterococcus faecalis NCTC 775. Details: key: − = no fluorescence detected; e = trace of fluorescence; +/− = weak fluorescence; + = medium fluorescence; ++ = strong fluorescence; NG = No Growth. The note with it: substrate 100 mg/l, 24 hours at 37° C., UV 360-365 nm. As to the method: as §1, §2
Assay [19] has as its system Staphylococcus aureus strains. The note with it: the two Staphylococcus aureus strains. How it is done: as §1, §2

The results in this text go back to US8216800B2, “Substrates for detecting peptidase activity and methods using the substrates” (Biomerieux, priority 2007, dated 2012).

As for `NCCC(=O)Nc1ccccc1-c1nc2ccccc2o1` [Substrate 2], the fluorescence intensity entry in assay [1] is “+”; in [2] it was “+”; in assay [3] it was “−”; in [4], “+”; in [5], “+/−”; in assay [6], “ε”. In addition, the fluorescence intensity result in [7] was “+”; in [8], “−”; in assay [9] it was “+/−”; in [10], “+/−”; in assay [11], “+”; in assay [12], “−”. The fluorescence intensity entry in [13] is reported as “NG”; in [14] it was “−”; in assay [15] it was “NG”; in [16] it was “−”; in assay [17], “−”; in assay [18], “+/−”. For the same compound, the “fluorescence produced” value in assay [2] was “green fluorescence”.
For the compound `NCC(=O)Nc1ccccc1-c1nc2ccccc2o1` [Substrate 3], the fluorescence intensity entry in assay [1] was “+/−”; in assay [2], “+”; in assay [3], “+”; in assay [4], “++”; in assay [5], “NG”; in [6] it was “+/−”. Also, the fluorescence intensity entry in [7] is listed as “++”; in assay [8], “NG”; in assay [9], “++”; in [10] it was “+/−”; in assay [11], “++”; in assay [12], “−”. The fluorescence intensity entry in assay [13] is “NG”; in [14] it was “NG”; in assay [15], “+/−”; in assay [16], “+”; in [17], “NG”; in assay [18], “−”. In addition, the “fluorescence produced” value in assay [2] is on record as “medium blue fluorescence”.
For the compound `C[C@H](N)C(=O)Nc1ccccc1-c1nc2cc(Cl)ccc2o1` [Substrate 4], the results for the “fluorescence produced” value in assay [19] and in assay [1] were “no fluorescence was detected” and “weak violet fluorescence”, respectively. Also, the fluorescence intensity result in [1] is given as “+/−”; in [2], “−”; in [3], “−”; in assay [4], “NG^2”; in [5], “−”; in assay [6] it was “−”. The fluorescence intensity result in assay [7] was “+”; in [8], “−”; in assay [9] it was “+”; in [10], “+”; in assay [11] it was “++”; in assay [12], “NG”. The fluorescence intensity result in assay [13] was “−”; in assay [14], “−”; in [15], “NG”; in [16] it was “−”; in assay [17], “−”; in assay [18], “+/−”.
Regarding `COc1cc(NC(=O)CCN)c(-c2nc3ccccc3o2)cc1OC` [Substrate 11], the fluorescence intensity entry is on record as “+/−” in [1]; “+” in assay [2]; “+” in [3]; “+” in assay [4]; “+/−” in assay [5]; “+/−” in assay [6]. In addition, the fluorescence intensity result in assay [7] is listed as “+”; in assay [8], “−”; in assay [9], “+”; in assay [10], “+/−”; in assay [11], “+”; in [12], “+”. Besides, the fluorescence intensity result in assay [13] was “−”; in assay [14], “−”; in [15], “−”; in assay [16], “−”; in [17], “−”; in assay [18], “+/−”.
Regarding `NCCC(=O)Nc1ccccc1-c1nc2ccccc2s1` [Substrate 18], the fluorescence intensity entry was “++” in assay [1]; “NG” in [2]; “NG” in assay [3]; “++” in assay [4]; “NG” in assay [5]; “NG” in assay [6]. In addition, the fluorescence intensity result is given as “NG” in [7]; “NG” in assay [8]; “NG” in [9]; “NG” in assay [10]; “++” in assay [11]; “NG” in [12]. Further, the fluorescence intensity result in assay [13], in [14], in [15], in [16], in [17] and in [18] was “NG” in each case.
Turning to `C[C@H](N)C(=O)Nc1ccc(Cl)cc1-c1nc2ccccc2s1` [Substrate 19], the fluorescence intensity entry is given as “−” in assay [1]; “−” in [2]; “−” in assay [3]; “+” in assay [4]; “−” in assay [5]; “−” in assay [6]. Also, the fluorescence intensity result is listed as “+” in assay [7]; “NG” in assay [8]; “+” in assay [9]; “−” in assay [11]; “+/−” in assay [12]; “NG” in assay [13]. The fluorescence intensity result in [14] is recorded as “NG”; in assay [15], “−”; in [16], “−”; in assay [17], “NG”; in assay [18], “−”. Also, the “fluorescence produced” value in assay [1] is “negative”.
